From ChEMBL document CHEMBL5528050, “Discovery of a Novel Series of Homo sapiens Caseinolytic Protease P Agonists for Colorectal Adenocarcinoma Treatment via ATF3-Dependent Integrated Stress Response” (J Med Chem, 2024)
pEC50, pIC50, pKd: −log10 of the molar value. Each block holds one molecule with its values, some of them ahead of it. Active and inactive are the calls of the source. The calls are words filed in the database; no cut-off is given here.

Columns and labels:
[1] = system: HCT-116; assay: cells; details: Homo sapiens, HCT-116, 72 h
Description: Antiproliferative activity against human HCT-116 cells assessed as inhibition of cell growth measured after 72 hrs by CCK-8 method

[2] = system: HCT-116; assay: Upregulation of slug expression in human HCT-116 cells measured after 48 hrs by Western blot analysis; assay type: functional, cell-based
[3] = system: HCT-116; assay: Induction of cell cycle arrest in human HCT-116 cells assessed as effect on number of cells at G1 phase at 5 to 20 uM measured after 48 hrs by PI staining based flow cytometry analysis; assay type: functional; details: dose 5-20 µM
[4] = Antiproliferative activity against human L02 cells assessed as inhibition of cell growth measured after 72 hrs by CCK-8 method; assay type: toxicity, cell-based
[5] = system: HCT-116; assay: Induction of cell cycle arrest in human HCT-116 cells assessed as increase in number of cells at G2 phase at high dose measured after 48 hrs by PI staining based flow cytometry analysis; assay type: functional
[6] = system: Cell membrane; assay: Induction of mitochondrial membrane potential loss in human HCT-116 cells assessed as increase in green fluorescence at high dose measured after 48 hrs by JC-1 staining based microscopy analysis; assay type: cell membranes
[7] = system: HCT-15; assay: cells; details: Homo sapiens, HCT-15, 72 h
Description: Antiproliferative activity against human HCT-15 cells assessed as inhibition of cell growth measured after 72 hrs by CCK-8 method

[8] = system: SW-620; assay: cells; details: Homo sapiens, SW-620, 72 h
Description: Antiproliferative activity against human SW-620 cells assessed as inhibition of cell growth measured after 72 hrs by CCK-8 method

[9] = system: HCT-116; assay: Antiproliferative activity against human HCT-116 cells assessed reduction in clone formation measured after 48 hrs by crystal violet staining based analysis; assay type: functional, cell-based
[10] = system: HCT-116; assay: Induction of apoptosis in human HCT-116 cells assessed as cell death at 20 uM measured after 48 hrs by annexin V-FITC/7-AAD based flow cytometry analysis relative to control; assay type: functional
[11] = system: HCT-116; assay: Induction of apoptosis in human HCT-116 cells assessed as apoptotic rate at medium dose measured after 48 hrs by annexin V-FITC/7-AAD based flow cytometry analysis relative to control; assay type: functional
[12] = system: HCT-116; assay: Induction of apoptosis in human HCT-116 cells assessed as apoptotic rate at low dose measured after 48 hrs by annexin V-FITC/7-AAD based flow cytometry analysis relative to control; assay type: functional
[13] = system: SW480; assay: cells; details: Homo sapiens, SW480, 72 h
Description: Antiproliferative activity against human SW480 cells assessed as inhibition of cell growth measured after 72 hrs by CCK-8 method

[14] = biological target: T1, ATP-dependent Clp protease proteolytic subunit, mitochondrial (Homo sapiens, UniProt Q16740); details: filed as agonist, dose 100.0 µM, time 30.0 min
T1 sequence (Q16740 whole entry): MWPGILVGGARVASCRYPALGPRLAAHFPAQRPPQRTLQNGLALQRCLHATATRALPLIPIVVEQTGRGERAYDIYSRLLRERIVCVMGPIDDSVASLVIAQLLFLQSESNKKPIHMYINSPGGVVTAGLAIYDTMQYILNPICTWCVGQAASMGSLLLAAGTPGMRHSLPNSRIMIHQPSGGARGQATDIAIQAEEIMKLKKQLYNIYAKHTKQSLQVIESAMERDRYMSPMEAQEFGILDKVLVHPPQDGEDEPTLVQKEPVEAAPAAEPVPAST

[15] = system: HCT-116; assay: Induction of ROS generation in human HCT-116 cells assessed as increase in intracellular ROS level measured after 48 hrs DCFH-DA staining based analysis; assay type: functional, cell-based
[16] = system: HCT-116; assay: Inhibition of cell migration in human HCT-116 cells at 5 to 20 uM measured after 24 to 48 hrs by microscopy based analysis; assay type: functional; details: dose 5-20 µM, time 24-48 hrs
[17] = system: DLD-1; assay: cells; details: Homo sapiens, DLD-1, 72 h
Description: Antiproliferative activity against human DLD-1 cells assessed as inhibition of cell growth measured after 72 hrs by CCK-8 method

[18] = biological target: T1, ATP-dependent Clp protease proteolytic subunit, mitochondrial; assay: Binding affinity to human ClpP expressed in Escherichia coli assessed as dissociation constant by ITC method
[19] = system: HCT-116; assay: Induction of apoptosis in human HCT-116 cells measured after 48 hrs by annexin V-FITC/7-AAD based flow cytometry analysis; assay type: functional, cell-based
[20] = Antiproliferative activity against HEK293 cells assessed as inhibition of cell growth measured after 72 hrs by CCK-8 method; assay type: toxicity, cell-based; details: human
[21] = biological target: T1, ATP-dependent Clp protease proteolytic subunit, mitochondrial; assay: Agonist activity at human ClpP expressed in Escherichia coli using AC-WLA-AMC as substrate measured every 5 mins for 1 hr by fluorescence based analysis
[22] = system: HCT-116; assay: Inhibition of mitochondrial function in human HCT-116 cells assessed as reduction in ATP production; assay type: functional, cell-based
[23] = Antiproliferative activity against human HCoEpiC cells assessed as inhibition of cell growth measured after 72 hrs by CCK-8 method; assay type: toxicity, cell-based
[24] = system: HCT-116; assay: Antiproliferative activity against ClpP knockdown human HCT-116 cells assessed as fold increase in IC50; assay type: functional
[25] = Antiproliferative activity against rat H9c2 cells assessed as inhibition of cell growth measured after 72 hrs by CCK-8 method; assay type: toxicity, cell-based
[26] = system: HCT-116; assay: Induction of cell cycle arrest in human HCT-116 cells assessed as increase in number of cells at G2 phase at 5 uM measured after 48 hrs by PI staining based flow cytometry analysis; assay type: functional
[27] = Cmax in Sprague-Dawley rat at 15 mg/kg, po by LC-MS/MS analysis; assay type: ADME, organism-based; details: in vivo
[28] = AUC (0 to 12hrs) in Sprague-Dawley rat at 15 mg/kg, po by LC-MS/MS analysis; assay type: ADME, organism-based; details: in vivo
[29] = Oral bioavailability in Sprague-Dawley rat at 15 mg/kg by LC-MS/MS analysis; assay type: ADME, organism-based; details: in vivo
[30] = Clearance in Sprague-Dawley rat at 5 mg/kg, iv by LC-MS/MS analysis; assay type: ADME, organism-based; details: in vivo
[31] = MRT (0 to 12hrs) in Sprague-Dawley rat at 15 mg/kg, po by LC-MS/MS analysis; assay type: ADME, organism-based; details: in vivo
[32] = AUC (0 to 12hrs) in Sprague-Dawley rat at 5 mg/kg, iv by LC-MS/MS analysis; assay type: ADME, organism-based; details: in vivo
[33] = Tmax in Sprague-Dawley rat at 15 mg/kg, po by LC-MS/MS analysis; assay type: ADME, organism-based; details: in vivo
[34] = Half life in Sprague-Dawley rat at 5 mg/kg, iv by LC-MS/MS analysis; details: in vivo
[35] = Half life in Sprague-Dawley rat at 15 mg/kg, po by LC-MS/MS analysis; details: in vivo
[36] = Cmax in Sprague-Dawley rat at 5 mg/kg, iv by LC-MS/MS analysis; assay type: ADME, organism-based; details: in vivo
[37] = MRT (0 to 12 hrs) in Sprague-Dawley rat at 5 mg/kg, iv by LC-MS/MS analysis; assay type: ADME, organism-based; details: in vivo

SMILES: O=C(Nc1ccc(C(F)(F)F)cc1)C1CCCN(C(=O)c2cc(C(F)(F)F)cc(C(F)(F)F)c2)C1 (stereo unspecified)
- pIC50 [1]: 4.52

SMILES: O=C(Nc1ccc(Cl)cc1)C1CCCN(C(=O)Cc2cc(Cl)ccc2F)C1 (stereo unspecified)
- pIC50 [1]: 4.17

SMILES: O=C(Nc1ccncc1)C1CCCN(C(=O)c2cc(C(F)(F)F)cc(C(F)(F)F)c2)C1 (stereo unspecified)
- pIC50 [1]: 4.22

SMILES: N#Cc1cccc(CN2CCCC(C(=O)NCc3ccc4c(c3)OCO4)C2)c1 (stereo unspecified)
- pIC50 [1]: 4.30

SMILES: O=C(NCc1ccc(C(F)(F)F)cc1)C1=CCCN(Cc2ccccc2)C1
- Activity [2]: Active
- pIC50 [1]: 4.30

SMILES: O=C(Nc1ccc(Oc2ccccc2)cc1)C1CCCN(C(=O)c2cc(C(F)(F)F)cc(C(F)(F)F)c2)C1 (stereo unspecified)
- pIC50 [1]: 4.40

SMILES: O=C(NCCc1ccc(Cl)cc1)C1CCCN(C(=O)c2cc(C(F)(F)F)cc(C(F)(F)F)c2)C1 (stereo unspecified)
- pIC50 [1]: 4.25

SMILES: O=C(Nc1ccc(Cl)cc1)C1=CCCN(C(=O)c2cc(C(F)(F)F)cc(C(F)(F)F)c2)C1
- pIC50 [1]: 4.39

SMILES: O=C(NCc1ccc2c(c1)OCO2)C1CCCN(C(=O)c2cc(C(F)(F)F)cc(C(F)(F)F)c2)C1 (stereo unspecified)
- pIC50 [1]: 4.02

SMILES: CC(NC(=O)c1cc(C(F)(F)F)cc(C(F)(F)F)c1)C(=O)Nc1ccc(Cl)cc1 (stereo unspecified)
- pIC50 [1]: 4.23

SMILES: O=C(NCc1ccccc1)C1=CCCN(Cc2ccccc2)C1
- pIC50 [1]: 4.26

SMILES: CC(C)(C)c1ccc(CNC(=O)C2CCCN(Cc3cccc(C#N)c3)C2)cc1 (stereo unspecified)
- pIC50 [1]: 4.40

SMILES: N#Cc1cccc(CN2CCCC(C(=O)NCc3ccc4ccccc4c3)C2)c1 (stereo unspecified)
- pIC50 [1]: 4.32

SMILES: N#Cc1cccc(CN2CCCC(C(=O)NCc3ccc(Cl)cc3Cl)C2)c1 (stereo unspecified)
- pIC50 [1]: 4.39

SMILES: CC(ONC(=O)c1cc(C(F)(F)F)cc(C(F)(F)F)c1)C(=O)Nc1ccc(Cl)cc1 (stereo unspecified)
- Activity [3]: inactive
- IC50 at 72 h [4]: 30.4 µM
- Activity [5]: ~40%
- Activity [6]: Active
- pIC50 [7]: 4.43
- pIC50 [8]: 4.81
- Activity [9]: Dose-Dependent Effect
- Activity [10]: 40%
- Activity [11]: 22%
- Activity [12]: 15%
- pIC50 [13]: 4.38
- ΔTm [14]: 4 °C
- Activity [15]: Active
- pIC50 [1]: 4.69
- inhibition [16]: Active
- pIC50 [17]: 4.53
- pKd [18]: 5.08
- Activity [19]: Dose-Dependent Effect
- IC50 at 72 h [20]: 55.4 µM
- pEC50 [21]: 7.98
- inhibition [22]: Active
- IC50 at 72 h [23]: 61.7 µM
- fold change (FC) [24]: 1.5
- IC50 at 72 h [25]: 35.5 µM
- Activity [26]: 20%

SMILES: O=C(NCc1ccc(C(F)(F)F)cc1)C1=CCCN(Cc2ccc(F)c(F)c2)C1
- pIC50 [1]: 4.59

SMILES: O=C(Nc1ccc(Cl)cc1)C1=CCCN(Cc2ccccc2)C1
- pIC50 [1]: 4.08

SMILES: O=C(CCNC(=O)c1cc(C(F)(F)F)cc(C(F)(F)F)c1)Nc1ccc(Cl)cc1
- pIC50 [1]: 4.19

SMILES: Cc1ccccc1CN1C(=O)C2=C(CCN(Cc3ccccc3)C2)N2CCN=C12 [DORDAVIPRONE]
- Cmax [27]: 566 ng/mL
- AUC(0-t) [28]: 894 ng·h/mL
- bioavailability [29]: 15.3%
- clearance [30]: 42.7 mL/min/kg
- MRT last [31]: 90 min
- AUC(0-t) [32]: 1960 ng·h/mL
- Tmax [33]: 24 min
- half-life [34]: 54 min
- half-life [35]: 66 min
- Cmax [36]: 2770 ng/mL
- MRT last [37]: 54 min

SMILES: O=C(Nc1ccc(Cl)cc1)C1CCCN(C(=O)c2cccc(-c3ccco3)c2)C1 (stereo unspecified)
- pIC50 [1]: 4.12

SMILES: O=C(Nc1cccc(Cl)c1)C1CCCN(C(=O)c2cc(C(F)(F)F)cc(C(F)(F)F)c2)C1 (stereo unspecified)
- pIC50 [1]: 4.52

SMILES: O=C(NCCNC(=O)c1cc(C(F)(F)F)cc(C(F)(F)F)c1)c1ccc(Cl)cc1
- pIC50 [1]: 4.11

SMILES: CC1(C)CCC(NC(=O)C2CCCN(C(=O)c3cc(C(F)(F)F)cc(C(F)(F)F)c3)C2)CC1 (stereo unspecified)
- pIC50 [1]: 4.09

More lines, in order of rising pIC50 [1], values ahead:

- pIC50 [1]: 4.60
SMILES: N#Cc1cccc(CN2CCCC(C(=O)NCc3ccc(Cl)c(Cl)c3)C2)c1 (stereo unspecified)

- pIC50 [1]: 4.60
SMILES: O=C(NCc1ccc(C(F)(F)F)cc1)C1=CCCN(Cc2cc(C(F)(F)F)cc(C(F)(F)F)c2)C1

- pIC50 [1]: 4.60
SMILES: O=C(Nc1ccc(Cl)cc1)c1cccc(NC(=O)c2cc(C(F)(F)F)cc(C(F)(F)F)c2)c1

- pIC50 [1]: 4.60
SMILES: O=C(NCc1ccc(C(F)(F)F)cc1)C1CCCN(C(=O)c2cc(C(F)(F)F)cc(C(F)(F)F)c2)C1 (stereo unspecified)

- pIC50 [1]: 4.66
SMILES: N#Cc1cccc(CN2CCCC(C(=O)NCc3ccc(Cl)cc3)C2)c1 (stereo unspecified)

- pIC50 [1]: 4.69
SMILES: O=C(NCc1ccc(C(F)(F)F)cc1)C1=CCCN(C(=O)c2cc(C(F)(F)F)cc(C(F)(F)F)c2)C1

- pIC50 [1]: 4.69
SMILES: N#Cc1cccc(CN2CCCC(C(=O)NCc3ccc(C(F)(F)F)cc3)C2)c1 (stereo unspecified)

- pIC50 [1]: 4.69
SMILES: N#Cc1cccc(CN2CCCC(C(=O)Nc3ccc(Cl)cc3)C2)c1 (stereo unspecified)

- pIC50 [1]: 4.70
SMILES: O=C(NCc1ccc(C(F)(F)F)cc1)C1=CCCN(Cc2cccc(F)c2)C1

- pIC50 [1]: 4.78
SMILES: O=C(Nc1ccc(Cl)cc1)C1CCCN(C(=O)c2cc(C(F)(F)F)cc(C(F)(F)F)c2)C1 (stereo unspecified)

- pIC50 [1]: 4.79
SMILES: O=C(Nc1cc(Cl)c(Cl)c(Cl)c1)C1CCCN(C(=O)c2cc(C(F)(F)F)cc(C(F)(F)F)c2)C1 (stereo unspecified)

- pIC50 [1]: 4.80
SMILES: O=C(Nc1ccc(Cl)c(Cl)c1)C1CCCN(C(=O)c2cc(C(F)(F)F)cc(C(F)(F)F)c2)C1 (stereo unspecified)

- pIC50 [1]: 5.60
SMILES: N#Cc1cccc(CN2CCC=C(C(=O)Nc3ccc(Cl)cc3)C2)c1
